Several values for one entry are separate records, joined by “and”; a condition that tells them apart may be missing. Identical values can stand only once. Like-named read-outs stand apart in the source and are kept apart here.
Key:
[1] = tested on: dopamine transporters (DAT); assay: [18F]-FE-PE2I PET displacement: DAT occupancy, displacement half-time and brain entry (modified GRTM); type: in vivo, rhesus macaques (Macaca mulatta); conditions: for Brain entry time, Caudate / Brain entry time, Putamen / Brain entry time, Mean: modified GRTM; for Brain entry time, Mean: mean over animals and regions; for Percent maximum displacement (= % DAT occupancy), Caudate\Putamen mean, Mean ± SD: group mean of four animals
Method: Two male and two female rhesus macaques (Macaca mulatta) housed at the Yale University School of Medicine (New Haven, CT) were used for the [^18F]-FE-PE2I imaging. In all experiments, [^18F]-FE-PE2I was administered as a bolus plus constant infusion (Kbol from 168 to 216 min; total radioactivity = 162 ± 27 MBq) over 4 h to establish steady-state DAT binding. Bolus/infusion delivery parameters (i.e., Kbol) for [^18F]-FE-PE2I for each monkey were determined from baseline [^18F]-FE-PE2I scans that utilized single bolus intravenous injections of the radiotracer (Carson et al. [1993]). Identical procedures were used for list-mode image acquisition with a Siemens Focus 220 PET scanner for all DAT brain studies. The dynamic PET imaging series were reconstructed into 57 frames (6 × 0.5 min, 3 × 1 min, 2 × 2 min, and 46 × 5 min) using filtered back projection with standard corrections for random, scatter, and attenuation provided by the camera manufacturer.
At 2 h into the [^18F]-FE-PE2I scan, under tracer steady-state conditions, DAS or MPH was administered i.v. either as a 3 min i.v. bolus or as a bolus plus 4-step infusion over 40 min (four 10-min steps). The drug bolus experiments were carried out in all four rhesus macaques, each receiving DAS at 0.2 and 0.1 mg/kg and MPH at 0.5 and 0.1 mg/kg. The drug bolus plus 4-step infusion experiments were conducted in two rhesus macaques, each receiving DAS bolus injection over 30 s followed by a 4-step infusion over 40 min (four 10-min steps, 1.55, 1.45, 1.4, 1.3 mg) and MPH bolus injection over 30 s followed by an infusion over 40 min (four 10-min steps, 1.15, 1, 0.85, 0.75 mg).
Reconstructed dynamic PET images were transferred and analyzed using the image processing software package PMOD 3.6 (PMOD Technologies, Zurich, Switzerland). The PET images were normalized to an MR rhesus brain template (Rohlfing et al. [2012]) and a region of interest (ROI) atlas including the caudate nucleus, putamen, and cerebellar cortex was applied. Average activity concentration (kBq/cc) within each ROI was determined and time-activity curves (TAC) representing the regional brain activity concentration over time were generated. TACs were additionally expressed in SUV units (g/ml) by normalizing by the weight of the animal and the injected dose.
Reductions in radiotracer binding following administration of DAS or MPH were used to determine DAT occupancy while reductions in radiotracer binding over time were used to estimate brain entry and binding rates. The displacement half-time is defined as the time it takes from drug administration until 50% of maximal tracer displacement is achieved. Tracer displacement half-times were estimated using average uptake levels from the baseline and displacement experiments and expressing the change in standardized uptake values (SUV) units as a fraction (normalized) of the observed SUV difference at the end of the experiment. Normalized SUV values for caudate and putamen respectively were plotted against time for each dose of DAS and MPH respectively to estimate the drug displacement half-time.
Brain entry of DAS and MPH was determined by analyzing the [^18F]-FE-PE2I TACs in the putamen and caudate nucleus using a kinetic model using the cerebellar cortex as a reference region. The kinetic model is based on the generalized reference tissue model (GRTM; Votaw et al. [2002]) and a recent report of brain entry and binding rates measurement (Nicolas et al. [2016]). […] The half-life of the brain entry and binding of the drug was estimated as ln(2)/α. The kinetic model employs 5 parameters: R1, BPND, r, α, and k2′ where R1 is the relative tracer influx rate constant and k2′ is the reference tissue tracer efflux rate constant. The maximum occupancy was constrained to the measured displacement, while k2′ and α were constrained to a common value across the putamen and caudate nucleus.

[2] = Plasma levels of DAS or MPH during the displacement studies; type: in vivo, rhesus macaques (Macaca mulatta)
Method: Venous blood samples (1 ml) were collected during the respective bolus and 4-step infusion displacement studies to measure the plasma levels of either DAS or MPH. Blood samples were collected in K3 EDTA vials, processed for plasma, frozen, and stored at − 20 °C until required for HPLC analysis of either DAS or MPH levels.

[3] = Tolerability and vital signs after i.v. administration; type: in vivo, rhesus macaques
Method: PET experiments within an animal were spaced at least 2 weeks apart to allow recovery from anesthesia. Animals were fasted for 18–24 h prior to each PET scan experiment. At 2–2.5 h before radiotracer injection, the animal was anesthetized with ketamine (10–15 mg/kg) and glycopyrrolate 0.01 mg/kg i.m., transferred to the PET camera, and intubated with an endotracheal tube for continued anesthesia with 2.0–2.5% isoflurane administered through a rebreathing circuit. An intravenous line was placed and used for injection of radiotracer and administration of the drug. A heated water blanket was used to maintain normal body temperature (37 °C). Vital signs, including heart rate, blood pressure, respiration rate, oxygen saturation, and body temperature, were monitored approximately every 1 to 15 min during the study (data not shown).
Animals tolerated i.v. administration of DAS or MPH at all doses examined.

DAT = conditions: ref Rowley et al. [2017]; read-out: Affinity for DAT, IC50; cited from earlier work
[4] = orally administered, recreational stimulant users; ref Koblan et al. [2016]; cited from earlier work
[5] = rodent, 14C-DAS; Data-on-file; ref Sunovion report 360-365; cited from earlier work
plasma protein = assay: Plasma protein binding; conditions: from plasma protein binding
[6] = 0.1 mg/kg DAS, bolus administration, individual animals A-D
[7] = 0.2 mg/kg DAS, bolus administration, individual animals A-D
[8] = 6 mg DAS, bolus + 4 step infusion, individual animals A, B
[9] = DAS 0.1 mg/kg i.v. 3 min bolus, individual animals A-D
[10] = DAS 0.2 mg/kg i.v. 3 min bolus, individual animals A-D
[11] = DAS 6.0 mg, bolus plus 4-step infusion over 40 min, individual animals A, B
[12] = DAS 6.0 mg, bolus plus 4-step infusion over 40 min, mean of two animals

With `N[C@@H]1CC[C@@H](c2ccc(Cl)c(Cl)c2)c2ccccc21` [DAS, (1R,4S)-4-(3,4-dichlorophenyl)-1,2,3,4-tetra-hydronaphthalen-1-amine] the “Averaged displacement half-time (between caudate and putamen)” value ([1]; 0.1 mg/kg DAS i.v. bolus) was 40 min, the “Brain entry time, Caudate” value [1, 6] was 18.91 min and 27.13 min and 25.06 min and 19.23 min and the “Brain entry time, Putamen” value [1, 6] was 15.35 min and 18.83 min and 33.22 min and 19.5 min. For the same compound, the “Brain entry time, Mean” value ([1]; 0.1 mg/kg DAS, bolus administration) was 22 min and 22.15 ± 5.85 min and 22.15 min, the “Averaged displacement half-time (between caudate and putamen)” value ([1]; 0.2 mg/kg DAS i.v. bolus) was 31 min and the “Brain entry time, Caudate” value [1, 7] was 19.90 min and 19.65 min and 12.09 min and 13.12 min. For the same compound, the “Brain entry time, Putamen” value [1, 7] was 11.47 min and 17.71 min and 12.60 min and 16.03 min, the “Brain entry time, Mean” value ([1]; 0.2 mg/kg DAS, bolus administration) was 15 min and 15.32 ± 3.45 min and 15.32 min and the “Brain entry time, Caudate” value [1, 8] was 16.07 min and 16.34 min. The “Brain entry time, Putamen” value [1, 8] was 16.33 min and 18.57 min, the “Brain entry time, Mean” value ([1]; 6 mg DAS, bolus + 4 step infusion) was 16.83 min and the “Percent maximum displacement (= % DAT occupancy), Caudate\Putamen mean, Mean ± SD” value ([1]; DAS 0.1 mg/kg i.v. 3 min bolus) was 54% and 54.48 ± 10.04%. For the same compound, the “Percent maximum displacement (= % DAT occupancy), Caudate nucleus” value [1, 9] was 56.1% and 49.9% and 40.8% and 53.4%, the “Percent maximum displacement (= % DAT occupancy), Caudate\Putamen mean” value [1, 9] was 61.2% and 52.5% and 41.1% and 63.1% and the “Percent maximum displacement (= % DAT occupancy), Putamen” value [1, 9] was 66.3% and 55.0% and 41.5% and 72.8%. For the same compound, the “Percent maximum displacement (= % DAT occupancy), Caudate\Putamen mean, Mean ± SD” value ([1]; DAS 0.2 mg/kg i.v. 3 min bolus) was 68% and 68.13 ± 10.30%, the “Percent maximum displacement (= % DAT occupancy), Caudate nucleus” value [1, 10] was 64.8% and 67.9% and 70.1% and 50.7% and the “Percent maximum displacement (= % DAT occupancy), Caudate\Putamen mean” value [1, 10] was 76% and 72.5% and 71% and 53%. The “Percent maximum displacement (= % DAT occupancy), Putamen” value [1, 10] was 87.3% and 77.1% and 72% and 55.3%, the “Percent maximum displacement (= % DAT occupancy), Caudate nucleus” value [1, 11] was 83.7% and 82.0% and the “Percent maximum displacement (= % DAT occupancy), Caudate\Putamen mean” value [1, 11] was 81.6% and 85.6% and 81.7%. The “Percent maximum displacement (= % DAT occupancy), Putamen” value [1, 11] was 87.4% and 81.3%, the “Percent maximum displacement (= % DAT occupancy), Caudate\putamen mean, Mean” value [1, 12] was 83.6% and the “Brain entry / DAT occupancy rate slower than MPH” value ([1]; i.v. administration, DAS relative to MPH) was ~ 7 fold and 5-11 fold. The “DAT RO50 from this study” value ([1]; rhesus monkey, plasma level) was 3.5 ng/mL, the Cmax [2, 9] was 87.9 ng/mL and 25.9 ng/mL and 102 ng/mL and 54.6 ng/mL and the Cmax [2, 10] was 213 ng/mL and 123 ng/mL. The “Average plasma (infusion period)” value [2, 11] was 34.86 ng/mL and 32.38 ng/mL, the “Average plasma (infusion period), Mean” value [2, 12] was 33.62 ng/mL and the Cmax ([2]; rhesus monkey, plasma, iv, 0.1 mg/kg, DAS 0.1 mg/kg i.v. 3 min bolus, group mean, read-out: Cmax, Mean ± SD) was 71.9 ± 23.4 ng/mL. The Cmax ([2]; rhesus monkey, plasma, iv, 0.2 mg/kg, DAS 0.2 mg/kg i.v. 3 min bolus, group mean, read-out: Cmax, Mean ± SD) was 175 ± 26.9 ng/mL, the Cmax ([2]; rhesus monkey, plasma, iv, 0.2 mg/kg, DAS 0.2 mg/kg i.v. 3 min bolus, individual animals A-D, read-out: Cmax) was 190 ng/mL and the “Changes in heart rate, respiratory rate, blood pressure, oxygen saturation and temperature compared with baseline” value ([3]; after i.v. administration, data not shown) was “No changes outside physiologically accepted limits”. The “Tolerability of i.v. administration” value ([3]; all doses examined) was “tolerated”, the IC50 (DAT) was 3 nM and the Potential for abuse [4] was “low potential for abuse compared with MPH”. The “brain:plasma ratio/partition coefficient (Kp)” value [5] was 6.2–12.3, the “Free plasma concentration (fraction)” value (plasma protein; as fraction) was 0.03 and the Free plasma concentration (plasma protein) was 3%.
